Experimental data: patent publication US6818782B2, “Enantiomeric compounds for treatment of cardiac arrhythmias and methods of use” (ARYX Therapeutics, priority 1999, dated 2004)

Assays:
[1] = test system: rats challenged by an arrhythmogenic combination of benzene vapors and adrenaline; assay: Anti-arrhythmic activity in anesthetized rats (benzene/adrenaline challenge: VPB and tachycardia); format: in vivo, rat; settings: for Protection against adrenaline-induced tachycardia (heart rate), potency and duration: administered from time 0 to time 120 minutes; for Heart rate (beats/minute) / Inhibition of tachycardia / Number of VPB / Inhibition of VPB: isolated enantiomer compared to respective racemate; for Inhibition of VPB: 4 mg/kg i.v. then 12 mg/kg/h for 2 hours; for Anti-VPB activity at the end of the washout period: time 180 min; for Inhibition of formation of ventricular premature beats during drug administration: whole period of drug administration (time 0 to 120 min), 4 mg/kg i.v. then 12 mg/kg/h
Method: (§1) Anti-Arrhythmic Activity in Anesthetized Rats
(§2) Male Sprague-Dawley rats with body weights of 410±30 g (Harlan Sprague Dawley Inc., Indianapolis, Ind.), were anesthetized with sodium pentobarbital (50 mg/kg i.p.—Butler Co., Columbus, Ohio). The skin from the neck area was removed and the jugular veins on both sides were cleared of connective tissue. Both jugular veins and the left carotid artery were isolated, and the latter tied up cranially with a surgical silk (ETHICON 4-0, Ethicon Inc., Australia). A plastic catheter ([…] 19ga, Vecton Dickinson, Sandy, Utah), filled with a solution containing 10% sodium heparin (Elkins-Sinn Inc., Cherry Hill, N.J.) in normal saline (100 U/ml sodium heparin), was introduced into the artery and fixed with surgical silk.
(§3) The catheter was connected to a pressure transducer (OHMEDA P23-XL, Ohmeda Medical Devices Division Inc., Madison, Wis.), filled with the same heparinized 0.9% NaCl solution, to register beat-to-beat arterial pressure. Needle electrodes were inserted s.c., and together with the pressure transducer, were joined to a GOULD TA 2000 recorder. Leads II, aVF and intraarterial blood pressure were monitored simultaneously throughout the experiments and recorded at certain intervals at 50 and 200 mm/sec paper speed.
(§4) The surgery was completed with an incision on the trachea where a short plastic tubing was placed and the animal was connected to a rodent-model ventilator (HARVARD Model 683, Harvard Apparatus, Inc., Holliston, Mass.). The animals were ventilated in a controlled way, depending on their spontaneous breathing frequency (55-75/min).
(§5) Drug administrations were carried out through i.v. catheters (TERUMO 24 GA*¾″, Terumo Medical Corp., Elkton, Md.) inserted into both jugular veins. The left side was used for drug infusions by means of a syringe pump (SAGE INSTRUMENTS, Model 341B, Orion Res. Inc., Boston, Mass.), and the right side was used for adrenaline injections. The experiments were started after at least 15 minutes of stabilization. Benzene/adrenaline challenges were performed as follows: the respirator inlet was connected to a 50-ml bubbler half-full with benzene (Fisher Scientific, Fair Lawn, N.J.) so that the inspired air was saturated with benzene vapor. The animal was ventilated with benzene vapor for two minutes. The tidal volume was typically 1 ml/100 g of animal. During the last 30 seconds of benzene ventilation, 10 μg/kg adrenaline solution (in 0.9% NaCl) was injected into the right jugular vein. […] These arrhythmias could be elicited repeatedly. After three control VTs (at −30, −20 and −10 minutes), the test compounds were injected slowly during 30 seconds at a dose of 4 mg/kg i.v., immediately followed by a slow infusion of 12 mg/kg/h for 2 hours. The flow rate during the infusion period was 1 ml/h.
(§6) There were 5 rats per test compound and each animal served as its own control. The ability of the different drugs to suppress arrhythmias was tested against repeated benzene/adrenaline challenges at 5, 15, 30, 45, 60, 90, 120 (end of drug infusion), 135, 150, 165 and 180 minutes after the i.v. bolus injection. The amplitudes of the systolic arterial pressure and diastolic arterial pressure […] with the help of a pressure-amplitude calibration curve. Heart rate, number of ventricular complexes during the occurrence of VTs and VPBs, and certain ECG parameters (PR, QRS, QT durations and RR cycle lengths in msec) were also recorded and measured manually. At each time-point, 3-5 cycles were measured and the average values were entered into EXCEL Windows 97. The average and standard deviation for the five experimental animals per compound were calculated.

anesthetized rats = assay: EKG parameters (QT, QRS, PR) in anesthetized rats; format: in vivo, rat; settings: for PR interval / QRS interval / QT interval: isolated enantiomer compared to respective racemate
Method: as §1, §2, §3, §4, §5, §6

Row | Compound | Protection against adrenaline-induced tachycardia (heart rate), potency and duration [1] | PR interval (anesthetized rats) | QRS interval (anesthetized rats) | QT interval (anesthetized rats) | Heart rate (beats/minute) ([1]; anesthetized rats) | Inhibition of tachycardia ([1]; anesthetized rats) | Number of VPB ([1]; anesthetized rats) | Inhibition of VPB ([1]; anesthetized rats) | Anti-VPB activity at the end of the washout period [1] | Inhibition of formation of ventricular premature beats during drug administration [1] | Effect on PR segment of EKG (Class-IV activity), potency (anesthetized rats) | Effect on QT segment of EKG (Class-III properties), potency and duration (anesthetized rats) | Time at which anti-VPB activity is lost ([1]; infusion time 0 to 120 min) [min] | Anti-VPB activity relative to the other forms ([1]; racemate vs enantiomers, anesthetized rats)
1 | CC[C@H](C)OC(=O)Cc1oc2ccccc2c1C(=O)c1cc(I)c(OCCN(CC)CC)c(I)c1 [ATI-2042] | very good protection against this tachyarrhythmia | – | – | – | – | – | – | – | – | – | – | – | – | –
2 | CCN(CC)CCOc1c(I)cc(C(=O)c2c(CC(=O)OC(C)C(C)C)oc3ccccc23)cc1I (stereo not shown) [ATI-2055] | inhibits the tachycardia | – | – | – | – | – | – | – | – | – | – | – | – | –
3 | CC[C@@H](C)OC(=O)Cc1oc2ccccc2c1C(=O)c1cc(I)c(OCCN(CC)CC)c(I)c1 [Compound R-2042, (R)-sec-Butyl 2-[3-(3,5-diiodo-4-(2-diethylaminoethyloxy)benzoyl)]benzofuraneacetate] | – | shorter | no change | no change | lower | longer | lower | longer | completely inactive | – | – | – | – | –
4 | CCN(CC)CCOc1c(I)cc(C(=O)c2c(CC(=O)O[C@H](C)C(C)C)oc3ccccc23)cc1I [Compound R-2055, (R)-(3-Methyl)-2butyl2-[3-(3,5-diiodo-4-(2-diethylaminoethyloxy)benzoyl)]benzofuraneacetate] | longer-lasting effect than S-2055 | shorter | longer | no change | lower | longer | lower | longer | still retained part of its activity | totally inhibited the formation of ventricular premature beats | – | – | – | –
5 | CC[C@H](C)OC(=O)Cc1oc2ccccc2c1C(=O)c1cc(I)c(OCCN(CC)CC)c(I)c1 [Compound S-2042, (S)-sec-Butyl 2-[3-(3,5-diiodo-4-(2-diethylaminoethyloxy)benzoyl)]benzofurane-acetate] | more potent and longer acting then R-2042 | longer | longer | longer | lower | longer | lower | longer | still retained part of its activity | totally inhibited the formation of ventricular premature beats | much more potent than R-2042 and the racemate R,S-2042 | the most potent and the longest acting | – | –
6 | CCN(CC)CCOc1c(I)cc(C(=O)c2c(CC(=O)O[C@@H](C)C(C)C)oc3ccccc23)cc1I [Compound S-2055, (S)-(3-Methyl)-2butyl2-[3-(3,5-diiodo-4-(2-diethylaminoethyloxy)benzoyl)]benzofuraneacetate] | – | shorter | longer | no change | lower | longer | lower | longer | completely inactive | – | – | – | ~40 | –
7 | CC[C@H](C)OC(=O)Cc1oc2ccccc2c1C(=O)c1cc(I)c(OCCN(CC)CC)c(I)c1 [R,S-2042] | the least potent and shortest acting | – | – | – | – | – | – | – | – | – | – | – | – | even less active than either the R- or the S-isomer
